These results are taken from patent US7598392B2, “2-amido-4-phenylthiazole derivatives, the preparation and the therapeutic use thereof” (sanofi-aventis, priority 2004, dated 2009).

For the first assay, the system named is human THP-1 monocytes. Nature of the assay: Inhibition of chemotaxis on human THP-1 monocytes. The format is cell-based. As for the experimental part: The inhibition of chemotaxis was also measured on human THP-1 monocytes (sold by DSMZ—Germany) using a technique adapted from that described by A. Albini et al., Cancer Res., 1987, 47, 3239-3245. Under these conditions, hMCP-1 has an IC50 of 6 nM.
The IC50 is the point on the concentration scale where inhibition reaches its midpoint. Read a low IC50 as greater potency. Regarding “hMCP-1: "hMCP-1 (human monocyte chemotactic protein)", "belongs to the group or CC chemokines and which is a natural agonist of the CCR2b receptor"”, the IC50 came out at 6 nM.

A further assay has as its target T1, human CCR2b receptor (Homo sapiens, UniProt P41597).
T1 sequence (P41597 1-360 isoform P41597-2): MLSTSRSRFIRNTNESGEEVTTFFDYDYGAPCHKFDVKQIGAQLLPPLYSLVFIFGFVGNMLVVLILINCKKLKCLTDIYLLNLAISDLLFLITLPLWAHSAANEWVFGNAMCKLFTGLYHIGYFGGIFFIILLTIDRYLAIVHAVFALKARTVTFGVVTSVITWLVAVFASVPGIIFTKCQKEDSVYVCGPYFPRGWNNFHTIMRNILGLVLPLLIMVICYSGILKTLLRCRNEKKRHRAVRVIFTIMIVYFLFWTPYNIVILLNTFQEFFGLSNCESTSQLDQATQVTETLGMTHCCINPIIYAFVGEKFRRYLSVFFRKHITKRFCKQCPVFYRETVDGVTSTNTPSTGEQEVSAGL
Nature of the assay: Inhibitory activity on cells expressing the human CCR2b receptor. The class given is cell-based. The protocol:
The inhibitory activity of the compounds according to the invention on cells expressing the human CCR2b receptor was measured.
For the molecule `CCCOc1ccc(OC)c(-c2csc(NC(=O)C3CCCN(C(=O)c4cc([N+](=O)[O-])cc([N+](=O)[O-])c4)C3)n2)c1` (stereo not drawn) [Compound 1], 290 nM corresponded to half-maximal inhibition (IC50). Regarding `COc1ccc(C2CCCCC2)cc1-c1csc(NC(=O)C2CCCN(C(=O)c3cccc(C#N)c3)C2)n1` (stereo not drawn) [Compound 20], the IC50 came to 25 nM. This IC50 lies about 12-fold lower than the previous one. Same read-out and setting: to `COc1ccc(C2CCCCC2)cc1-c1csc(NC(=O)C2CCCN(C(=O)c3ccoc3C)C2)n1` (stereo not drawn) [Compound 31] belongs 44 nM. `COc1ccc(C2CCCCC2)cc1-c1csc(NC(=O)C2CCCN(C(=O)c3ccncn3)C2)n1` (stereo not drawn) [Compound 107, 1-(pyrimidine-4-carbonyl)piperidine-3-carboxylic acid [4-(5-cyclohexyl-2-methoxyphenyl)thiazol-2-yl]amide] gave an IC50 of 5 nM. The same measure, in the same setting: to “hMCP-1: "hMCP-1 (human monocyte chemotactic protein)", "belongs to the group or CC chemokines and which is a natural agonist of the CCR2b receptor"” belongs 0.57 nM.
